Measurements taken from ChEMBL document CHEMBL3872238, “Selectivity switch between FAK and Pyk2: Macrocyclization of FAK inhibitors improves Pyk2 potency” (Bioorg Med Chem Lett, 2016).
Converted amounts (≈) assume the structure as drawn.

Experiments:
[1] = Permeability from apical side to basolateral side in human Caco2 cells; assay type: ADME, cell-based; conditions: Caco-2, read-out: permeability
[2] = Permeability from basolateral side to apical side in human Caco2 cells; assay type: ADME, cell-based; conditions: Caco-2, read-out: permeability
[3] = Half life in human liver microsomes; assay type: ADME
[4] = Kinetic solubility of compound at pH 7; assay type: physicochemical; conditions: buffer, read-out: Kinetic_solubility
[5] = Half life in dog liver microsomes; assay type: ADME, Canis lupus familiaris
[6] = Half life in mouse liver microsomes; assay type: ADME

Compound | Papp A→B [1] | Papp B→A [2] | half-life [3] | solubility kinetic [4] | half-life [5] | half-life [6]
CN1Cc2ccccc2N(S(C)(=O)=O)CCCCC(=O)N2CCc3cc(ccc32)Nc2ncc(C(F)(F)F)c1n2 | – | – | < 1 h | < 1.6 µM | < 1 h | < 1 h
CCS(=O)(=O)N1CCCCC(=O)N2CCc3cc(ccc32)Nc2ncc(C(F)(F)F)c(n2)NCc2ccccc21 | – | – | < 1 h | < 1.6 µM | < 1 h | < 1 h
CN1Cc2cccnc2N(S(C)(=O)=O)C/C=C/c2cc(ccc2N2CCOCC2)Nc2ncc(C(F)(F)F)c1n2 | – | – | – | 1 µM (≈ 0.576 µg/mL) | – | –
CN1Cc2ccncc2N(S(C)(=O)=O)C/C=C/c2cc(ccc2N2CCOCC2)Nc2ncc(C(F)(F)F)c1n2 | – | – | 4.38 h | 3 µM (≈ 1.73 µg/mL) | – | –
CS(=O)(=O)N1CCCCC(=O)N2CCc3cc(ccc32)Nc2ncc(C(F)(F)F)c(n2)NCc2ccccc21 | – | – | < 1 h | < 1.6 µM | < 1 h | < 1 h

Continued, values first:

Papp A→B [1] | Papp B→A [2] | half-life [3] | solubility kinetic [4] | half-life [5] | half-life [6] | Compound
11 ×10⁻⁶ cm/s | 29 ×10⁻⁶ cm/s | – | – | – | – | CN(c1ncccc1CNc1nc(Nc2ccc3c(c2)CC(=O)N3)ncc1C(F)(F)F)S(C)(=O)=O [PF-00562271]
– | – | – | 0.3 µM (≈ 0.143 µg/mL) | – | – | CS(=O)(=O)N1C/C=C/c2cccc(c2)Nc2ncc(C(F)(F)F)c(n2)NCc2cccnc21
30 ×10⁻⁶ cm/s | 32 ×10⁻⁶ cm/s | < 1 h | – | < 1 h | < 1 h | CS(=O)(=O)N1CCCCC(=O)N2CCc3cc(ccc32)Nc2ncc(C(F)(F)F)c(n2)NCc2cccnc21
